The numbers were not newly measured in US10507188B2, “Particles containing an opioid receptor antagonist and methods of use” (priority 2008, dated 2019), which cites them from elsewhere.

Each structure is given as a SMILES string.

For this series the following is noted: white crystalline powder, typically the bromide salt (Mallinckrodt).

Consider `C[N+]1(CC2CC2)CCC23c4c5ccc(O)c4OC2C(=O)CCC3(O)C1C5` (stereo not shown) [MNTX, N-methylnaltrexone], for which the solubility in water entry is reported as “freely soluble in water”.
